Molecules are shown by their SMILES.

We go through 26 molecules from patent publication US9914722B2, “Compounds for treating spinal muscular atrophy” (PTC Therapeutics Inc., priority 2012, dated 2018).

In series [1] the test system is Smn protein. Put plainly: Smn protein assay (Smn HTRF) in cultured cells. Particulars: Homo sapiens, Fibroblast, GM03813 SMA Type 1 patient fibroblasts, 48 hours, HTRF; for maximal fold induction: 7-point concentration data, relative to vehicle, read-out: maximum fold (Fold) increase of Smn protein; for EC (1.5-fold): concentration producing 1.5 times Smn protein vs DMSO vehicle, read-out: EC1.5x for Smn protein expression. In kind it is cell-based, human. In short, it runs like this:
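SMA patient fibroblasts (5,000/well) were exposed to a 7-point, 3.16-fold compound dilution series for 48 hours at 37° C, in triplicate. Lysates were read by HTRF with anti-SMN d2/kryptate at 665/620 nm. Blank-corrected signal was expressed as fold over DMSO vehicle, giving the EC1.5x and the maximum fold increase.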

Series [2] deals with full length SMN2 minigene mRNA containing SMN2 exon 7 (SMN2-A minigene). Put plainly: SMN2 minigene mRNA splicing RT-qPCR assay in cultured cells. It is filed as cell-based, human. Particulars: Homo sapiens, HEK293-H; HEK293H cells stably transfected with SMN2-A minigene, 24 hours, 7-point concentration curve; concentration giving 1.5-fold SMN2 full length mRNA vs vehicle; read-out: EC1.5x for production of full length SMN2 mRNA. In short, it runs like this:
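HEK293H cells stably carrying the SMN2-A minigene were treated 24 h at 37 °C with a 7-point, 3.16-fold test compound series, in duplicate. Multiplex RT-qPCR measured exon 7-containing minigene FL mRNA, normalized to GAPDH and expressed relative to vehicle; EC1.5x is the concentration giving 1.5-fold FL mRNA.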

With `COc1ccc(-c2cc(=O)c3cc(N4CCNCC4)ccc3o2)cc1F` [Cpd 37, 2-(3-fluoro-4-methoxyphenyl)-6-(piperazin-1-yl)-4H-chromen-4-one], the melting point lay within 178 to 180 °C. Further, in series [1], the maximal fold induction fell in the range of 1.35 to 1.5 and the EC (1.5-fold) was in the range of 1 to 3 µM. The EC (1.5-fold) in series [2] is 0.1 to 0.3 µM.
For `COc1ccc(-c2cc(=O)c3cc(N4C[C@@H](C)N[C@@H](C)C4)ccc3o2)cc1F` [Cpd 39, 6-[(3R,5S)-3,5-dimethylpiperazin-1-yl]-2-(3-fluoro-4-methoxyphenyl)-4H-chromen-4-one], in that order: 180 to 182 °C, 1.5 to 1.65, 3 to 10 µM and 0.1 to 0.3 µM.
For `COc1ccc(-c2cc(=O)c3cc(N4CCN[C@H](C)C4)ccc3o2)cc1F` [Cpd 40, 2-(3-fluoro-4-methoxyphenyl)-6-[(3R)-3-methylpiperazin-1-yl]-4H-chromen-4-one], in that order: 110 to 112 °C, 1.35 to 1.5, 1 to 3 µM and 0.1 to 0.3 µM.
In the case of `CCOc1ccc(-c2cc(=O)c3cc(N4CCNCC4)ccc3o2)cc1` [Cpd 41, 2-(4-ethoxyphenyl)-6-(piperazin-1-yl)-4H-chromen-4-one], the melting point was 180 to 182 °C. The maximal fold induction in series [1] was at most 1.2. For the same molecule, in series [2], the EC (1.5-fold) lay in the range of 0.3 to 1 µM.
The molecule `CCOc1ccc(-c2cc(=O)c3cc(N4CCN[C@@H](C)C4)ccc3o2)cc1` [Cpd 42, 2-(4-ethoxyphenyl)-6-[(3S)-3-methylpiperazin-1-yl]-4H-chromen-4-one] came in with a melting point of 93 to 94 °C. Also, the maximal fold induction in series [1] lay in the range of 1.2 to 1.35. The EC (1.5-fold) in series [2] was 0.3 to 1 µM.
`CCOc1ccc(-c2cc(=O)c3cc(N4CCN[C@H](C)C4)ccc3o2)cc1` [Cpd 44, 2-(4-ethoxyphenyl)-6-[(3R)-3-methylpiperazin-1-yl]-4H-chromen-4-one] registered a melting point of 92 to 94 °C. For the same molecule, the maximal fold induction in series [1] was at most 1.2. In addition, the EC (1.5-fold) in series [2] lay within 1 to 3 µM.
The corresponding values for `COc1cc(F)c(-c2cc(=O)c3cc(N4CCNCC4)ccc3o2)cc1OC` [Cpd 45, 2-(2-fluoro-4,5-dimethoxyphenyl)-6-(piperazin-1-yl)-4H-chromen-4-one] are 130 to 132 °C, 1.2 to 1.35 and 1 to 3 µM.
Turning to `COc1cc(F)c(-c2cc(=O)c3cc(N4CCN[C@@H](C)C4)ccc3o2)cc1OC` [Cpd 46, 2-(2-fluoro-4,5-dimethoxyphenyl)-6-[(3S)-3-methylpiperazin-1-yl]-4H-chromen-4-one], the melting point is 179 to 181 °C. In series [1], the maximal fold induction lay within 1.5 to 1.65 and the EC (1.5-fold) is 1 to 3 µM. The EC (1.5-fold) in series [2] lay in the range of 0.3 to 1 µM.
The corresponding values for `COc1cc(F)c(-c2cc(=O)c3cc(N4C[C@@H](C)N[C@@H](C)C4)ccc3o2)cc1OC` [Cpd 47, 6-[(3R,5S)-3,5-dimethylpiperazin-1-yl]-2-(2-fluoro-4,5-dimethoxyphenyl)-4H-chromen-4-one] are 164 to 166 °C, 1.5 to 1.65, 1 to 3 µM and 1 to 3 µM.
Consider `COc1cc(F)c(-c2cc(=O)c3cc(N4CCN[C@H](C)C4)ccc3o2)cc1OC` [Cpd 48, 2-(2-fluoro-4,5-dimethoxyphenyl)-6-[(3R)-3-methylpiperazin-1-yl]-4H-chromen-4-one], for which the melting point is 180 to 182 °C. Further, in series [1], the maximal fold induction lay within 1.5 to 1.65 and the EC (1.5-fold) was in the range of 1 to 3 µM. The EC (1.5-fold) in series [2] fell in the range of 1 to 3 µM.
For the molecule `CC(C)Oc1ccc(-c2cc(=O)c3cc(N4CCNCC4)ccc3o2)cc1` [Cpd 49, 6-(piperazin-1-yl)-2-[4-(propan-2-yloxy)phenyl]-4H-chromen-4-one], the melting point is 126 to 128 °C. In series [1], the maximal fold induction is at most 1.2. The EC (1.5-fold) in series [2] was in the range of 1 to 3 µM.
For `CC(C)Oc1ccc(-c2cc(=O)c3cc(N4CCN[C@@H](C)C4)ccc3o2)cc1` [Cpd 50, 6-[(3S)-3-methylpiperazin-1-yl]-2-[4-(propan-2-yloxy)phenyl]-4H-chromen-4-one], in that order: 128 to 130 °C, at most 1.2 and 1 to 3 µM.
`COc1ccc(-c2cc(=O)c3cc(N4CCNCC4)ccc3o2)cc1C` [Cpd 51, 2-(4-methoxy-3-methylphenyl)-6-(piperazin-1-yl)-4H-chromen-4-one]: the melting point is 98 to 100 °C. Besides, the maximal fold induction in series [1] fell in the range of 1.35 to 1.5. The EC (1.5-fold) in series [2] was in the range of 0.3 to 1 µM.
Molecule `COc1ccc(-c2cc(=O)c3cc(N4CCN[C@@H](C)C4)ccc3o2)cc1C` [Cpd 52, 2-(4-methoxy-3-methylphenyl)-6-[(3S)-3-methylpiperazin-1-yl]-4H-chromen-4-one] gave a melting point of 174 to 176 °C. The maximal fold induction in series [1] was 1.35 to 1.5. The EC (1.5-fold) in series [2] lay in the range of 0.1 to 0.3 µM.
For the molecule `COc1ccc(-c2cc(=O)c3cc(N4C[C@@H](C)N[C@@H](C)C4)ccc3o2)cc1C` [Cpd 53, 6-[(3R,5S)-3,5-dimethylpiperazin-1-yl]-2-(4-methoxy-3-methylphenyl)-4H-chromen-4-one], the melting point fell in the range of 186 to 188 °C. In series [1], the maximal fold induction was 1.2 to 1.35. The EC (1.5-fold) in series [2] fell in the range of 0.3 to 1 µM.
The corresponding values for `COc1ccc(-c2cc(=O)c3cc(N4CCN[C@H](C)C4)ccc3o2)cc1C` [Cpd 54, 2-(4-methoxy-3-methylphenyl)-6-[(3R)-3-methylpiperazin-1-yl]-4H-chromen-4-one] are 164 to 166 °C, 1.2 to 1.35 and 0.3 to 1 µM.
Molecule `COc1ccc(-c2cc(=O)c3cc(N4CCNCC4)ccc3o2)cn1` [Cpd 55, 2-(6-methoxypyridin-3-yl)-6-(piperazin-1-yl)-4H-chromen-4-one] gave a melting point of 165 to 170 °C. Moreover, in series [1], the maximal fold induction was 1.2 to 1.35. Besides, in series [2], the EC (1.5-fold) is 0.3 to 1 µM.
For the molecule `COc1ccc(-c2cc(=O)c3cc(N4CCN[C@@H](C)C4)ccc3o2)cn1` [Cpd 56, 2-(6-methoxypyridin-3-yl)-6-[(3S)-3-methylpiperazin-1-yl]-4H-chromen-4-one], the melting point is 196 to 200 °C. Moreover, in series [1], the maximal fold induction was in the range of 1.35 to 1.5. The EC (1.5-fold) in series [2] was in the range of 0.3 to 1 µM.
For `COc1ccc(-c2cc(=O)c3cc(N4CCN[C@H](C)C4)ccc3o2)cn1` [Cpd 57, 2-(6-methoxypyridin-3-yl)-6-[(3R)-3-methylpiperazin-1-yl]-4H-chromen-4-one], in that order: 198 to 200 °C, 1.2 to 1.35 and 0.3 to 1 µM.
Consider `COc1ccc(-c2cc(=O)c3cc(N4CCNCC4)ccc3o2)cc1Cl` [Cpd 58, 2-(3-chloro-4-methoxyphenyl)-6-(piperazin-1-yl)-4H-chromen-4-one], for which the melting point was in the range of 145 to 150 °C. Further, in series [1], the maximal fold induction was 1.35 to 1.5 and the EC (1.5-fold) was in the range of 1 to 3 µM. Besides, the EC (1.5-fold) in series [2] is at most 0.1 µM.
With `COc1ccc(-c2cc(=O)c3cc(N4CCN[C@@H](C)C4)ccc3o2)cc1Cl` [Cpd 59, 2-(3-chloro-4-methoxyphenyl)-6-[(3S)-3-methylpiperazin-1-yl]-4H-chromen-4-one], the melting point was 172 to 174 °C. For the same molecule, in series [1], the maximal fold induction lay in the range of 1.5 to 1.65 and the EC (1.5-fold) is at most 0.3 µM. For the same molecule, the EC (1.5-fold) in series [2] is at most 0.1 µM.
The corresponding values for `COc1ccc(-c2cc(=O)c3cc(N4C[C@@H](C)N[C@@H](C)C4)ccc3o2)cc1Cl` [Cpd 60, 2-(3-chloro-4-methoxyphenyl)-6-[(3R,5S)-3,5-dimethylpiperazin-1-yl]-4H-chromen-4-one] are 176 to 178 °C, above 1.65, 1 to 3 µM and 0.1 to 0.3 µM.
`COc1ccc(-c2cc(=O)c3cc(N4CCN[C@H](C)C4)ccc3o2)cc1Cl` [Cpd 61, 2-(3-chloro-4-methoxyphenyl)-6-[(3R)-3-methylpiperazin-1-yl]-4H-chromen-4-one]: the melting point lay within 170 to 172 °C. Also, in series [1], the maximal fold induction is 1.2 to 1.35. Also, the EC (1.5-fold) in series [2] is 0.1 to 0.3 µM.
In the case of `COc1ccc(-c2cc(=O)c3cc(N4CCNCC4)ccc3o2)cc1` [Cpd 62, 2-(4-methoxyphenyl)-6-(piperazin-1-yl)-4H-chromen-4-one], the melting point was in the range of 166 to 170 °C. Besides, in series [1], the maximal fold induction lay in the range of 1.2 to 1.35. In addition, the EC (1.5-fold) in series [2] lay in the range of 0.1 to 0.3 µM.
Molecule `COc1ccc(-c2cc(=O)c3cc(N4CCN[C@@H](C)C4)ccc3o2)cc1` [Cpd 63, 2-(4-methoxyphenyl)-6-[(3S)-3-methylpiperazin-1-yl]-4H-chromen-4-one] showed a melting point of 155 to 160 °C. Moreover, in series [1], the maximal fold induction is 1.5 to 1.65 and the EC (1.5-fold) lay in the range of 0.3 to 1 µM. The EC (1.5-fold) in series [2] lay within 0.1 to 0.3 µM.
The molecule `O=c1cc(-c2ccc(OC(F)(F)F)cc2)oc2ccc(N3CCNCC3)cc12` [Cpd 64, 6-(piperazin-1-yl)-2-[4-(trifluoromethoxy)phenyl]-4H-chromen-4-one] gave a melting point of 146 to 148 °C. Further, the maximal fold induction in series [1] is at most 1.2. Further, in series [2], the EC (1.5-fold) lay in the range of 0.3 to 1 µM.
